The record followed here is US5512549A, “Glucagon-like insulinotropic peptide analogs, compositions, and methods of use” (Eli Lilly and Company, priority 1994, dated 1996).

One assay relates to beagles. The experiment in a line: Dog S.C. Hyperglycemic (150 mg/dl) Clamp Test. As to conditions: S.C. 10 μg/kg; for GIR Change AUC / Insulin Change AUC: 0-120 min; for GIR Change AUC / Insulin Change AUC / Max Insulin Change: mean ± SEM; for Max Insulin Change: 120 minute test period; for Duration of Insulin Effect: time average insulin change consistently >0.5 ng/ml. Type of assay: in vivo. As for the experimental part:
a) Hyperglycemic Clamp Studies
Experiments were conducted in overnight-fasted, conscious, adult (1-2 years of age) male and female beagles weighing 8-15 kg. At least ten days prior to the study, animals were anesthetized with isoflurane, and a cut-down was made in the left or right inguinal region. Silastic catheters were inserted into the femoral artery and the proximal caudal femoral vein and secured with 4-0 silk suture. The free ends of the catheters were passed subcutaneously to the back using a trocar needle. The catheters were then filled with a glycerol/heparin solution (3:1, v/v; final heparin concentration of 250 KIU/ml), and the free ends were knotted and placed in a subcutaneous pocket to allow complete closure of the skin. Keflex® was administered both pre-operatively (20 mg/kg, IV and 20 mg/kg, I.M.) and post-operatively (250 mg, p.o. once daily for seven days) to prevent infections. Torbugesic (1.5 mg/kg, I.M.) was administered post-operativelyto control pain.
Blood was drawn just prior to the study day to determine the health of the animal. Only animals with hematocrits above 38% and leukocyte counts below 16,000/mm^3 were used.
The afternoon before the experiment, the free ends of the catheters were exteriorized from the subcutaneous pocket through a small incision made under local anesthesia (2% lidocaine), and the dog was fitted with a tether system jacket and collar assembly.
The morning of the experiment, the contents of the catheters were aspirated, the catheters were flushed with saline, and extension lines (protected by a stainless steel tether) were attached to the catheters. On mornings of IV injection experiments, an over-the-needle, teflon catheter was inserted percutaneously into a cephalic vein in preparation for the administration of an IV bolus of test substance. The dog was placed in a metabolic cage, and the catheter extension lines and tether were attached to a swivel system to allow the dog to move freely about the cage. At this time (-60 minutes), an exogenous infusion of glucose (50% w/v in water) was begun through the chronic venous catheter. Glucose was infused in a descending stepwise fashion over the first six minutes of the study to rapidly raise the plasma glucose concentration to 150 mg/dl. Plasma glucose concentrations were determined every 2.5 to 7.5 minutes throughout the remainder of the study, and the glucose infusion rate was adjusted appropriately to maintain the plasma glucose concentration at 150 mg/dl.
Sixty minutes after the start of the glucose infusion (time 0), test substance was administered either intravenously (1.0, 2.9, 5.0 or 10.0 μg/kg; dose dissolved in 2 ml of saline containing 0.3% dog albumin, w/v) through the previously inserted teflon catheter or subcutaneously (10 μg/kg; 150 μM in phosphate buffered saline) in the dorsal aspect of the neck.
Arterial blood samples (3.5 ml) were taken at -30, -15, 0, 2.5, 5, 7.5, 10, 12.5, 15, 20, 30, 45, 60, 75, 90, 105 and 120 minutes during the IV studies and at -30, -15, 0, 3, 6, 9, 12, 15, 20, 30, 45, 60, 75, 90, 105 and 120 minutes during the SC studies. Samples were collected in vacuum blood collection tubes containing disodium EDTA and immediately placed on ice. To prevent proteolytic cleavage of GLP-1(7-37) in the plasma samples, 1.5 ml of the EDTA containing blood were transferred to a polypropylene tube containing 40 μl of aprotinin (10,000 KIU/ml) and mixed well. The samples were centrifuged, and the resulting plasma was transferred to polypropylene test tubes and stored on ice for the duration of the study.
At the conclusion of the experiment, the animal was anesthetized (isoflurane); the catheters were flushed with fresh saline and filled with the glycerol/heparin mixture; the free ends of the catheters were knotted and placed subcutaneously as described earlier; and antibiotic was administered (300 mg Keflex®, I.M.). […]

Assay [1] has as its system Sprague Dawley or Zucker Diabetic Fatty rats. The experiment in a line: Rat IV Glucose (1 g/kg) Tolerance Test. The settings on record: for Insulin Change AUC: 0-15 min. Type of assay: in vivo. The method, then:
a) Glucose Tolerance Tests
Experiments were conducted in overnight-fasted, conscious, male Sprague Dawley (Charles River) or Zucker Diabetic Fatty (Genetic Models, Inc.) rats weighing approximately 250 (Sprague Dawley rats) or 300 (Zucker Diabetic Fatty rats) grams. Four to five days prior the study, rats were anesthetized with isoflurane, and a polyethylene (PE50) catheter was inserted into the right jugular vein. The catheter was secured with a wound clip, filled with saline containing heparin (2% sodium heparin), and closed with a small stainless steel plug.
After a sixteen-hour fast, twelve chronically cannulated rats were separated into four groups of three rats per group. 0.4 ml of blood was taken from the tail vein, collected into a microtainer tube containing lithium heparin, and immediately placed on ice (zero minute sample). A glucose bolus (1.0 g/kg; 50% glucose (w/v) in water) was administered via the indwelling jugular cannula, and the cannula was rinsed with 200 μl of saline. Twenty seconds later a bolus of test substance 100 μl/100 g body weight of either vehicle (saline containing 0.3% (w/v) bovine serum albumin) or vehicle containing analog! was administered through the jugular cannula, and the cannula was rinsed as before. Rats were bled from the tail again at 2, 5, 10, 20 and 30 minutes after the administration of the glucose bolus, and the samples were treated as described above. At the end of the experiment, blood samples were centrifuged, and the plasma was collected.
Plasma glucose concentrations were determined the day of the experiment using a coupled hexokinase procedure in a clinical chemistry analyzer. Plasma for insulin determinations were diluted with zero calibrator and frozen at -20° C. until time for analysis. Insulin concentrations were determined using a commercial radioimmunoassay kit with rat insulin as the standard.
Insulin change (the change in insulin from the baseline value) was calculated as the difference between the insulin concentration at time t and the insulin concentration at zero time. The area under the insulin change curve was calculated using the trapezoidal rule. Plasma glucose change (the increase in plasma glucose above the baseline value) was calculated as the difference between the plasma glucose concentration at time t and the plasma glucose concentration at zero time. The area under the plasma glucose change curve was calculated using the trapezoidal rule. Values are listed as the mean ± the standard error of the mean (SEM).

For the substance GLP-1(7-37)OH, in the assay with beagles, the “GIR Change AUC” value was determined as 696 ± 145 mg/kg, the “Insulin Change AUC” value was found to be 64 ± 33 ng·min/mL, the “Max Insulin Change” value was found to be 1.6 ± 0.8 ng/mL and the “Duration of Insulin Effect” value was determined as 27 min. For the same substance, in assay [1] (IV dose 0.6 mg/kg), the “Insulin Change at 10 min” value came out at 5.4 ng/mL, the “Max Insulin Change” value turned out to be 7.8 ng/mL and the “Insulin Change AUC” value was found to be 79 ± 8 ng·min/mL. For the same substance, in assay [1] (IV dose 0.92 mg/kg), the “Insulin Change at 10 min” value stood at 3.5 ng/mL, the “Max Insulin Change” value was found to be 8.4 ng/mL and the “Insulin Change AUC” value was 75 ± 12 ng·min/mL. Besides, in assay [1] (IV dose 1.2 mg/kg), the “Insulin Change at 10 min” value amounted to 4.2 ng/mL, the “Max Insulin Change” value amounted to 8.4 ng/mL and the “Insulin Change AUC” value was found to be 77 ± 17 ng·min/mL.

Regarding “Lys^34 -N^ε -octanoyl-GLP-1(7-37)OH [Lys^34-N^ε-octanoyl-GLP-1(7-37)OH]”, in the assay with beagles, the “GIR Change AUC” value came to 532 ± 112 mg/kg, the “Insulin Change AUC” value came to 29 ± 8 ng·min/mL, the “Max Insulin Change” value stood at 0.6 ± 0.3 ng/mL and the “Duration of Insulin Effect” value is listed as “not active”. In assay [1] (IV dose 0.6 mg/kg), the “Insulin Change at 10 min” value was 1.3 ng/mL, the “Max Insulin Change” value worked out at 5.0 ng/mL and the “Insulin Change AUC” value stood at 33 ± 8 ng·min/mL. In assay [1] (IV dose 1.2 mg/kg), the “Insulin Change at 10 min” value is 10.0 ng/mL, the “Max Insulin Change” value was found to be 13.1 ng/mL and the “Insulin Change AUC” value stood at 136 ± 30 ng·min/mL.
